Measurements reported in patent US20230183239A1, “ECTONUCLEOTIDE PYROPHOSPHATASE-PHOSPHODIESTERASE 1 (ENPP-1) INHIBITORS AND USES THEREOF” (AbbVie Inc., priority 2017, published 2023).

Assays:
IFNβ gene transcription = type: cell-based, human; details: 3, 6, and 19 hrs exposure; VACV-70 stimulated PBMCs
ENPP1 [1] = target: T1, ENPP1 (Homo sapiens, UniProt P22413); test: ENPP1 enzyme assay with AMP-pNP substrate (hydrolysis of ATP analog); type: biochemical
T1 sequence (P22413 1-925): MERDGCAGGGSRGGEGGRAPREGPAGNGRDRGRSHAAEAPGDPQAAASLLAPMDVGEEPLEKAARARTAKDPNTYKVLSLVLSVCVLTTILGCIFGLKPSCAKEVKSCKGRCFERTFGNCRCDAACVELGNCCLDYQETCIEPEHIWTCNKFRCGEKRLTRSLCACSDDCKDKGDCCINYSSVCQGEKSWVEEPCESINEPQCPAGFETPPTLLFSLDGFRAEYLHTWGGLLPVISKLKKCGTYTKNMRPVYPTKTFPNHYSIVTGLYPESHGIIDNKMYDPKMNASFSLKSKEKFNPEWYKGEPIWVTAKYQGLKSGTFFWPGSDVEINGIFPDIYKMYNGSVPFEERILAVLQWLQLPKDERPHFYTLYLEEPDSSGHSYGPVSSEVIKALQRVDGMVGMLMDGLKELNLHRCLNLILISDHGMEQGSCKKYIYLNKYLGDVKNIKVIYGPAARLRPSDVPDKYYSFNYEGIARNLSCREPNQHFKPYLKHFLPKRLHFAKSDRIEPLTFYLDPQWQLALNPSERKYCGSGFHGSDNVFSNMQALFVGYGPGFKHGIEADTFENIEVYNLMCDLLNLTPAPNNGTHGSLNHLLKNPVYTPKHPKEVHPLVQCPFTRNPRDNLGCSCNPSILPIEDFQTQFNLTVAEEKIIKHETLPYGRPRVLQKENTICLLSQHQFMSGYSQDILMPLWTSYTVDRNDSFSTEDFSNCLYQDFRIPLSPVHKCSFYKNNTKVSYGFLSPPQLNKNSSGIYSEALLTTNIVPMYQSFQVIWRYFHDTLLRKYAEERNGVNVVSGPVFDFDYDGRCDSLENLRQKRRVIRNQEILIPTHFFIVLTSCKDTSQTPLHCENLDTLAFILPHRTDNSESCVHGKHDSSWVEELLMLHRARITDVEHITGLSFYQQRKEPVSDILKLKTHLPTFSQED
Procedure, shortened: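 Reactions ran 20 min at 37 °C, pH 8.5 Tris buffer with NaCl, CaCl2, ZnCl2, using 300 µM AMP-pNP and 60 ng/well recombinant human ENPP1; inhibitor range 10 µM–30 pM, duplicates.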

ENPP1 [2] = target: T1, ENPP1; test: Indirect quantitation of 2',3'-cGAMP hydrolysis (AMP-Glo Assay kit); type: biochemical
ENPP1 [3] = target: T1, ENPP1; test: ENPP1 enzyme assay with cGAMP substrate (AMP-Glo); type: biochemical; design: purchased R&D Systems; details: cGAMP substrate
From the text: Example B1: ENPP1 Enzyme Assay With cGAMP Substrate
Ectonucleotide pyrophosphatase/phosphodiesterase 1 (ENPP-1) is a transmembrane glycoprotein that hydrolyzes nucleotides and nucleotide derivatives with the formation of nucleoside-5’-monophosphates. […] The 5’-AMP formed from the reaction is detected using the AMP-Glo® Kit (Promega). The assay kit contains two reagents. The first reagent terminates the enzymatic reaction, removes ATP (using adenylyl cyclase), and converts 5’-AMP produced into ADP (using polyphosphate: AMP phosphotransferase). The second reagent converts ADP to ATP (using adenylate kinase) and generates light from ATP using the luciferin/luciferase reaction.
Different concentrations of ENPP1 inhibitors are pre-incubated with 5 ng/well of human ENPP-1 enzyme (R&D Systems) for 15 minutes at 37° C. The reaction is initiated by adding 20 µM 2’3’-cGAMP and incubating for 30 minutes at 37° C. The final assay reaction mixture contains a buffer of 50 mM Tris pH 8.0, 250 mM NaCl, 0.5 mM CaCl2, 1 µM ZnCl2 and 1% DMSO. At the end of the incubation, the reaction is stopped by adding 12 µl of AMP-Glo reagent-1 and mixing the reaction uniformly for 5 minutes, followed by incubation at room temperature for one hour. Then 25 µl of AMP Glo reagent-2 is added to the reaction, mixed uniformly with a pipette, and incubated at room temperature for one hour to convert the ADP formed from reagent-1 to ATP and light. The generated light is measured in a Perkin Elmer Victor® instrument.
(§1) The IC50 values for percent inhibition versus compound concentration are determined by fitting the inhibition curves using a four-parameter variable slope model in GraphPad Prism® software. Ki values are derived from the IC50 values using the Cheng-Prusoff equation: […]

IFN β gene transcription = test: IFNβ mRNA in cGAMP-stimulated human foreskin fibroblasts (HFF-1); type: cell-based; details: cGAMP-stimulated human foreskin fibroblast cells (HFF-1)
Procedure: Human Foreskin Fibroblasts
The cell line was sourced from ATCC (Cat# SCRC-1041). Cells were cultured in 15% fetal bovine serum-containing growth medium. They were seeded in a 48 well plate @ 100,000 per well (300 µL), and incubated for 1 hour at 37° C., 5% CO2. 100 µl of compound (0.05 µM to 5 µM final concentrations) was added 30 min prior to addition of cGAMP (12.5 µM & 25 µM final concentrations). The plate was incubated for 3 hrs at 37° C., 5% CO2. Cells were washed with PBS and 250 µl of RLT reagent (provided in the RNA isolation kit (RNeasy Mini kit, Qiagen Cat # 74106). was added to each well. RNA was isolated using this kit as per the given protocol. RNA was converted to cDNA using a Bio-Rad cDNA conversion kit (iScript® cDNA synthesis kit, Bio-Rad Cat #170-8891). IFN βgene transcription was quantitated using SYBR green dye in an RT-PCR instrument. The methods and protocol were the same as for PBMCs, except that Interferon mRNA levels were normalized to GAPDH mRNA.

ENPP1 [4] = target: T1, ENPP1; test: Substrate selectivity ratio, inhibition of cGAMP hydrolysis versus ATP hydrolysis; type: biochemical; details: ratio Ki AMP-pNP / Ki cGAMP
Procedure: The selectivity ratios for inhibition of cGAMP hydrolysis versus ATP hydrolysis were then calculated as follows: […]

ENPP1 [5] = target: T1, ENPP1; test: ENPP1 enzyme assay with TMP-pNP substrate; type: biochemical; design: purchased R&D Systems; details: Ki from IC50 by Cheng-Prusoff
Procedure: Example B2: ENPP1 Enzyme Assay With TMP-pNP Substrate
Ectonucleotide pyrophosphatase/phosphodiesterase 1 (ENPP-1) is a transmembrane glycoprotein that hydrolyzes nucleotides and nucleotide derivatives with the formation of nucleotide-5’-monophosphates. ENPP-1 hydrolyzes thymidine 5’monophosphate p-nitrophenyl ester (TMP-pNP) to nucleotide-5’-monophosphate and p-nitrophenol, which is a chromogenic product. The amount of p-nitrophenol product formed is measured using its absorbance at 405 nm, which is directly proportional to enzyme activity. Different concentrations of inhibitors are pre-incubated with 15 ng/well of human ENPP-1 enzyme (R&D Systems) for 15 minutes at 37° C. The reaction is initiated by adding 200 µM TMP-pNP and incubating for 10 minutes at 37° C. The final assay reaction mixture contains a buffer of 50 mM Tris pH 8.0, 250 mM NaCl, 0.5 mM CaCl2, 1 µM ZnCl2 and 1% DMSO. The amount of product formed is measured directly in a Tecan® spectrophotometer. Maximal activity control samples (containing enzyme, substrate, and buffer in the absence of ENPP1 inhibitors: MAX) and background control samples (containing enzyme, substrate, and buffer plus a fully inhibitory concentration (3 µM) of the reference ENPP1 Inhibitor, Example 333: MIN) are simultaneously evaluated in order to calculate the percent inhibition at each compound concentration as follows:
as §1, with “curves (percent inhibition versus inhibitor concentration)” for “curves”

[6] = AMP-pNP substrate (ATP analog), Ki from IC50 by Cheng-Prusoff, read-out: ENPP1 Inhibition _AMP-pNP: Ki
[7] = cGAMP substrate, Ki from IC50 by Cheng-Prusoff, read-out: ENPP1 Inhibition -cGAMP: Ki

SMILES: COc1ccc2c(Oc3ccc(NS(N)(=O)=O)cc3)ccnc2c1 [Example 54, N-(4-((7-methoxyquinolin-4-yl)oxy)phenyl)sulfamide]
- transcription of IFNβ (IFNβ gene transcription): enhances transcription of IFNβ
- Ki (ENPP1 [1]): 0.1 to 1 µM
- Ki (ENPP1 [2]): < 0.1 µM

SMILES: COc1cc2ncnc(-c3ccc4c(c3)CN(S(N)(=O)=O)CC4)c2cc1OC [Example 32, 7-(6,7-dimethoxyquinazolin-4-yl)-3,4-dihydroisoquinoline-2(1H)-sulfonamide]
- inhibition at 1 µM (ENPP1 [3]; 1 µM compound, read-out: cGAMP: % Inhibition at 1 µM): > 75%
- transcription of IFNβ (IFN β gene transcription): enhances transcription of IFNβ
- Ki (ENPP1 [1]; [6]): < 0.1 µM
- Substrate Selectivity: Ki_AMP-pNP/Ki_cGAMP (ENPP1 [4]): 24.3
- Ki (ENPP1 [2]; [7]): < 0.1 µM

SMILES: COc1cc2ncc(C#N)c(N3CCC4(CC3)CCN(S(N)(=O)=O)C4)c2cc1F [Example 57, 8-(3-cyano-6-fluoro-7-methoxyquinolin-4-yl)-2,8-diazaspiro[4.5]decane-2-sulfonamide]
- transcription of IFNβ (IFN β gene transcription): enhances .transcription of IFNβ
- Ki (ENPP1 [1]; [6]): < 0.1 µM
- Substrate Selectivity: Ki_AMP-pNP/Ki_cGAMP (ENPP1 [4]): 24.7
- Ki (ENPP1 [2]; [7]): < 0.1 µM

SMILES: COc1ccc2c(-c3ccc(CNS(N)(=O)=O)cc3)ccnc2c1 [Example 55, N-(4-(7-methoxyquinolin-4-yl)benzyl)sulfamide]
- transcription of IFNβ (IFN β gene transcription): enhances transcription of IFNβ

SMILES: COc1ccc2c(Oc3ccc(S(N)(=O)=O)cc3)ccnc2c1 [Example 58, 4-((7-methoxyquinolin-4-yl)oxy)benzenesulfonamide]
- transcription of IFNβ (IFNβ gene transcription): enhances transcription of IFNβ

SMILES: COc1cc2ncnc(N3CCC4(CC3)CCN(S(N)(=O)=O)C4)c2cc1OC [Example 29, 8-(6,7-dimethoxyquinazolin-4-+yl)-2,8-diazaspiro[4.5]decane-2-sulfonamide]
- inhibition at 10 µM (ENPP1 [3]; 10 µM compound): > 75%
- Ki (ENPP1 [3]; Ki from IC50 by Cheng-Prusoff, read-out: cGAMP: Ki): < 0.1 µM
- Ki (ENPP1 [1]; [6]): < 0.1 µM
- Ki (ENPP1 [5]): < 0.1 µM
- Substrate Selectivity: Ki_AMP-pNP/Ki_cGAMP (ENPP1 [4]): 19.2
- Ki (ENPP1 [2]; [7]): < 0.1 µM
